Data as given in EP4778921A1, “SALT FORM AND CRYSTAL FORM OF NITROGEN-CONTAINING HETEROCYCLIC DERIVATIVE INHIBITOR, AND PREPARATION METHOD THEREFOR AND USE THEREOF” (Shanghai Hansoh Biomedical Co., Ltd., priority 2023, dated 2025).
Where a name gives a salt, the structure may show the parent alone.

Assays:
[1] = test system: Ba/F3 EGFR Del19/C797S; experiment: Cell proliferation inhibition experiment (Cell Titer-Glo); assay type: cell-based; conditions: Mus musculus, 72 hours, read-out: Ba/F3 EGFR Dell9/C797S IC50
Procedure: (§1) Experimental objective: The objective of this test example is to test the inhibitory activity of compounds on the proliferation of different EGFR C797S drug-resistant mutant cell lines Ba/F3 EGFR Del19/T790M/C797S, Ba/F3 EGFR L858R/T790M/C797S, and Ba/F3 EGFR Del19/C797S. Experimental instruments: Centrifuge (Eppendorf 5810R); Microplate reader (BioTek Synergy H1) Pipette (Eppendorf or Rainin); Carbon dioxide incubator (Thermo 311) Cell counter (Life Countess II) Experimental reagents and consumables: • Ba/F3 EGFR Del19/T790M/C797S cells were purchased from KYinno Biotechnology Co., Ltd.; • Ba/F3 EGFR Del19/C797S cells were purchased from CoBioer Biosciences Co., Ltd.; • Ba/F3 EGFR L858R/T790M/C797S cells were purchased from CoBioer Biosciences Co., Ltd.; • Cell Titer-Glo was purchased from Promega, with a catalogue number of G7573; • RPMI 1640 was purchased from Gibco, with a catalogue number of 22400089; • FBS was purchased from Gibco, with a catalogue number of 10091148; • cell culture plates were purchased from Corning, with a catalogue number of 3610. Experimental methods: The inhibitory activity of the compound on the proliferation of different EGFR C797S drug-resistant mutant cell lines was detected using the Cell Titer-Glo method. The different cell lines were cultured in RPMI 1640 complete culture medium containing 10% FBS under conditions of 37°C and 5% CO2, the cells were collected by centrifugation when growing to a certain density, and adjusted to appropriate cell density after counting, the cells were spread on a white 96-well plate at 90 µL/well, and cultured in a 37°C, 5% CO2 incubator overnight, prepared compound solutions at different concentrations were added at 10 µL/well, corresponding solvent controls were set, and all wells were cultured in a 37°C, 5% CO2 incubator for 72 hours, 50 µL of CellTiter-Glo solution was added to each well, shook and mixed evenly, and incubated in the dark for 10 minutes, and a BioTek Synergy H1 microplate reader was used for reading. Experimental data processing method: The luminescence signal value was used to calculate the inhibition rate. Graphpad Prism software was used to fit the concentration and inhibition rate to a nonlinear regression curve, so as to obtain the IC50 value, as shown in the Table below for details.

[2] = test system: Ba/F3 EGFR Del19/T790M/C797S; experiment: as above; assay type: cell-based; conditions: Mus musculus, 72 hours, read-out: Ba/F3 EGFR Del19_T790M_C797S IC50
Procedure: as §1

[3] = Solubility experiments in different media, crystal forms of salts; assay type: physicochemical; parameters: thermodynamic solubility FaSSIF / thermodynamic solubility FaSSGF / thermodynamic solubility FeSSIF: unit not given here; conditions: about 2 mg suspended for 24 hours, 37°C, HPLC, external standard method; for thermodynamic solubility FaSSGF: FaSSGF (artificial simulated gastric fluid); for thermodynamic solubility FaSSIF: FaSSIF (fasted-state artificial simulated intestinal fluid); for thermodynamic solubility FeSSIF: FeSSIF (fed-state artificial simulated intestinal fluid)
Text: 4.1 Experimental objective: The solubility of the crystal form A of phosphate, crystal form A of hydrochloride, crystal form A of sulphate, crystal form A of citrate, crystal form A of oxalate, crystal form A of maleate and crystal form A of salicylate in media such as artificial simulated gastric fluid (FaSSGF), fasted-state artificial simulated intestinal fluid (FaSSIF), and fed-state artificial simulated intestinal fluid (FeSSIF) was compared to provide a basis for the evaluation of the potential of the crystal forms of salts being manufactured as a drug. […]

[4] = Hygroscopicity experiment (crystal forms of salts and crystal form A of free base); assay type: physicochemical; conditions: for weight gain after moisture absorption / hygroscopicity: RH 80%; for hygroscopicity: result in words; for crystal form transformation (XRPD pattern): after 1 cycle of moisture absorption and desorption, 0-95% relative humidity
Text: • 2.1 Experimental objective: The hygroscopicity of different crystal forms of salts of the compound was investigated under various relative humidity conditions to provide a basis for screening and storage of the crystal forms of salts of the compound. • 2.2 Experimental scheme: The crystal forms of salts of the compound were placed in saturated water vapor at different relative humidities to reach a dynamic equilibrium between the compound and the water vapor.
3.1 Experimental objective: The hygroscopicity of crystal form A of free base of the compound was investigated under various relative humidity conditions to provide a basis for screening and storage of the crystal forms of the compound.
3.2 Experimental scheme: The crystal form A of free base of the compound was placed in saturated water vapor at different relative humidities to reach a dynamic equilibrium between the compound and the water vapor. The percentage weight gain of the compound due to moisture absorption was calculated after the equilibrium.

[5] = Solid stability experiment of crystal forms of salts (7 and 14 days); assay type: physicochemical
Procedure: • 3.1 Experimental objective: To investigate the physical and chemical stability for different crystal forms of salts under the conditions of a high temperature of 60°C (GW), a high humidity of RH = 92.5% (GS), and both a high temperature of 50°C and a high humidity of RH = 75% (JS) and provide a basis for the screening of the crystal forms of salts and the storage of the crystal forms of salts of the compound. • 3.2 Experimental scheme: Different crystal forms of salts (crystal form A of hydrochloride, crystal form A of sulphate, crystal form A of citrate, crystal form A of oxalate, crystal form A of maleate and crystal form A of salicylate) were accurately weighed, and the stability of the crystal forms was investigated for 7 and 14 days under the three conditions of 60°C (GW), 92.5% RH (room temperature, GS), and 50°C/75% RH (JS). […] Therefore, they can well meet the requirements of subsequent drug development. […] Therefore, they both satisfy the requirements for subsequent drug storage.

[6] = high temperature, high humidity, and both high temperature and high humidity conditions, 7 and 14 days
[7] = placed for a period of time under various conditions
[8] = high temperature and high humidity conditions, 7 and 14 days

Structure (SMILES) | IC50 [1] | IC50 [2] | thermodynamic solubility FaSSGF [3] | thermodynamic solubility FaSSIF [3] | thermodynamic solubility FeSSIF [3] | weight gain after moisture absorption [4] | hygroscopicity [4] | crystal form transformation (XRPD pattern) [4] | stability (impurity increase) [5, 6] | stability (impurity increase) [5, 7] | stability (impurity increase) [5, 8]
CC(C)c1c(F)cc(N2CC(N(C)S(C)(=O)=O)C2)c2cnc(Nc3ccnc(-c4cn(C)nc4Cl)n3)cc12 [Example 3, N-(1-(3-((2-(3-chloro-1-methyl-1H-pyrazol-4-yl)pyrimidin-4-yl)amino)-6-fluoro-5-isopropylisoquinolin-8-yl)azetidin-3-yl)-N-methylmethanesulphonamide] | 0.014 µM | – | – | – | – | – | – | – | – | – | –
Cc1nn(C)cc1-c1nccc(Nc2cc3c(C(C)C)c(F)cc(N4C[C@H](CS(C)(=O)=O)[C@H]4C)c3cn2)n1 [Example 4, N-(2-(1,3-dimethyl-1H-pyrazol-4-yl)pyrimidin-4-yl)-6-fluoro-5-isopropyl-8-((2R,3S)-2-methyl-3-((methanesulphonyl)methyl)azetidin-1-yl)isoquinolin-3-amine] | 0.018 µM | 0.0068 µM | – | – | – | – | – | – | – | – | –
Cc1nn(C)cc1-c1nccc(Nc2cc3c(C(C)C)c(F)cc(N4CC(N(C)S(C)(=O)=O)C4)c3cn2)n1 [Example 6, N-(1-(3-((2-(1,3-dimethyl-1H-pyrazol-4-yl)pyrimidin-4-yl)amino)-6-fluoro-5-isopropylisoquinolin-8-yl)azetidin-3-yl)-N-methylmethanesulphonamide] | 0.022 µM | – | – | – | – | – | – | – | – | – | –
CC(C)c1c(F)cc(N2CC(NS(C)(=O)=O)C2)c2cnc(Nc3ccnc(-c4cn(C)nc4Cl)n3)cc12 [Example 13, N-(1-(3-((2-(3-chloro-1-methyl-1H-pyrazol-4-yl)pyrimidin-4-yl)amino)-6-fluoro-5-isopropylisoquinolin-8-yl)azetidin-3-yl)methanesulphonamide] | 0.019 µM | – | – | – | – | – | – | – | – | – | –
CC(C)c1c(F)cc(N2C[C@H](N(C)S(C)(=O)=O)[C@H]2C)c2cnc(Nc3ccnc(-c4cn(C)nc4Cl)n3)cc12 [crystal form A of citrate, N-((2R,3S)-1-(3-((2-(3-chloro-1-methyl-1H-pyrazol-4-yl)pyrimidin-4-yl)amino)-6-fluoro-5-isopropylisoquinolin-8-yl)-2-methylazetidin-3-yl)-N-methylmethanesulphonamide] | – | – | 0.053 | 0.159 | >0.870 | 0.573% | weak hygroscopicity | no crystal form transformation occurred | relatively stable | – | –
CC(C)c1c(F)cc(N2C[C@H](N(C)S(C)(=O)=O)[C@H]2C)c2cnc(Nc3ccnc(-c4cn(C)nc4Cl)n3)cc12 [crystal form A of hydrochloride, N-((2R,3S)-1-(3-((2-(3-chloro-1-methyl-1H-pyrazol-4-yl)pyrimidin-4-yl)amino)-6-fluoro-5-isopropylisoquinolin-8-yl)-2-methylazetidin-3-yl)-N-methylmethanesulphonamide] | – | – | 0.072 | 0.214 | >1.016 | – | – | – | – | remain stable | –
CC(C)c1c(F)cc(N2C[C@H](N(C)S(C)(=O)=O)[C@H]2C)c2cnc(Nc3ccnc(-c4cn(C)nc4Cl)n3)cc12 [crystal form A of maleate, N-((2R,3S)-1-(3-((2-(3-chloro-1-methyl-1H-pyrazol-4-yl)pyrimidin-4-yl)amino)-6-fluoro-5-isopropylisoquinolin-8-yl)-2-methylazetidin-3-yl)-N-methylmethanesulphonamide] | – | – | 0.075 | 0.029 | >1.020 | 2.050% | – | no crystal form transformation occurred | – | – | relatively stable
CC(C)c1c(F)cc(N2C[C@H](N(C)S(C)(=O)=O)[C@H]2C)c2cnc(Nc3ccnc(-c4cn(C)nc4Cl)n3)cc12 [crystal form A of oxalate, N-((2R,3S)-1-(3-((2-(3-chloro-1-methyl-1H-pyrazol-4-yl)pyrimidin-4-yl)amino)-6-fluoro-5-isopropylisoquinolin-8-yl)-2-methylazetidin-3-yl)-N-methylmethanesulphonamide] | – | – | 0.070 | 0.035 | 1.228 | 1.707% | weak hygroscopicity | no crystal form transformation occurred | relatively stable | – | –
CC(C)c1c(F)cc(N2C[C@H](N(C)S(C)(=O)=O)[C@H]2C)c2cnc(Nc3ccnc(-c4cn(C)nc4Cl)n3)cc12 [crystal form A of salicylate, N-((2R,3S)-1-(3-((2-(3-chloro-1-methyl-1H-pyrazol-4-yl)pyrimidin-4-yl)amino)-6-fluoro-5-isopropylisoquinolin-8-yl)-2-methylazetidin-3-yl)-N-methylmethanesulphonamide] | – | – | 0.020 | 0.101 | 0.672 | 0.1374% | weak hygroscopicity | no crystal form transformation occurred | – | – | relatively stable
CC(C)c1c(F)cc(N2C[C@H](N(C)S(C)(=O)=O)[C@H]2C)c2cnc(Nc3ccnc(-c4cn(C)nc4Cl)n3)cc12 [crystal form A of sulphate, N-((2R,3S)-1-(3-((2-(3-chloro-1-methyl-1H-pyrazol-4-yl)pyrimidin-4-yl)amino)-6-fluoro-5-isopropylisoquinolin-8-yl)-2-methylazetidin-3-yl)-N-methylmethanesulphonamide] | – | – | 0.096 | 0.034 | 1.114 | 4.616% | – | no crystal form transformation occurred | – | remain stable | –
CC(C)c1c(F)cc(N2C[C@H](N(C)S(C)(=O)=O)[C@H]2C)c2cnc(Nc3ccnc(-c4cn(C)nc4Cl)n3)cc12 [crystal form B of hydrochloride, N-((2R,3S)-1-(3-((2-(3-chloro-1-methyl-1H-pyrazol-4-yl)pyrimidin-4-yl)amino)-6-fluoro-5-isopropylisoquinolin-8-yl)-2-methylazetidin-3-yl)-N-methylmethanesulphonamide] | – | – | – | – | – | 1.157% | weak hygroscopicity | no crystal form transformation occurred | – | – | –
